Measurements as given in patent US10081628B2, “Apoptosis-inducing agents for the treatment of cancer and immune and autoimmune diseases” (AbbVie Inc., priority 2013, dated 2018).
Read-outs that look alike come from different tables or passages of the source.

How the values were obtained:
lymphocytes = assay: Lymphocyte reduction in C57BL/6 mice; format: in vivo; conditions: Mus musculus, ip
Experimental: An experiment was performed to evaluate the effect of Bcl-2 selective/Bcl-xL sparing compounds on immune cells and platelets, as evaluated in C57Bl/6 mice. Mice were treated four days with compounds (doses of 30 mg/kg, administered by intraperitoneal injection every day) and cell numbers were measured with a Cell Dyn hematology analyzer 24 hours after the first and last doses. Exposure of the compound (area under the curve) was calculated by using time points of 1, 6, 10 and 24 hours after the last dose.

GST-Bcl-2 = GST-Bcl-2 (Homo sapiens, UniProt P10415); assay: TR-FRET Bcl-2 binding assay (F-Bak peptide probe); conditions: GST-Bcl-2 1 nM, F-Bak peptide probe 100 nM, Tb-anti-GST 1 nM; Wang's equation; '<' = below limit of detection
Sequence of GST-Bcl-2 (P10415 whole entry): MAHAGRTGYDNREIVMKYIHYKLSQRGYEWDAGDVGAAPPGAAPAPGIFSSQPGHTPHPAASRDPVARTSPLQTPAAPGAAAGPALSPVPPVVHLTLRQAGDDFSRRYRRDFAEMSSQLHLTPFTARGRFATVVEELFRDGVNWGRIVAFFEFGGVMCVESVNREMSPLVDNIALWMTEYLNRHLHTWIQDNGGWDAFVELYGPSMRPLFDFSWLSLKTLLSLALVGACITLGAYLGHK
Experimental: Determination of the utility of compounds of this invention as binders to and inhibitors of anti-apoptotic Bcl-2 proteins was performed using the Time Resolved-Fluorescence Resonance Energy Transfer (TR-FRET) Assay. Tb-anti-GST antibody was purchased from Invitrogen (Catalog No. PV4216).
Representative compounds were serially diluted in dimethyl sulfoxide (DMSO) starting at 50 μM (2× starting concentration; 10% DMSO) and 10 μL were transferred into a 384-well plate. The samples are then mixed on a shaker for 1 minute and incubated for an additional 3 hours at room temperature. For each assay, the probe/antibody and protein/probe/antibody were included on each assay plate as negative and positive controls, respectively. Fluorescence was measured on the Envision (Perkin Elmer) using a 340/35 nm excitation filter and 520/525 (F-Bak peptide) and 495/510 nm (Tb-labeled […] antibody) emission filters. Dissociation constants (Ki) are shown in TABLE 2 below and were determined using Wang's equation (Wang Z.-X., An Exact Mathematical Expression For Describing Competitive Binding Of Two Different Ligands To A Protein Molecule. FEBS Lett. 1995, 360:111-4).
The samples were then mixed on a shaker for 1 minute and incubated for an additional 3 hours at room temperature. For each assay, the probe/antibody and protein/probe/antibody were included on each assay plate as negative and positive controls, respectively. Fluorescence was measured on the Envision (Perkin Elmer) using a 340/35 nm excitation filter and 520/525 (F-Bak peptide) and 495/510 nm (Tb-labeled anti-Histidine antibody) emission filters.
Inhibition constants (Ki) for compounds were determined using Wang's equation (Wang Zx. An Exact Mathematical Expression For Describing Competitive Binding Of Two Different Ligands To A Protein Molecule. FEBS Lett. 1995, 360:111-4).
The inhibition constant (Ki) is the dissociation constant of an enzyme-inhibitor complex or a protein/small molecule complex, wherein the small molecule is inhibiting binding of one protein to another protein or peptide. So a large Ki value indicates a low binding affinity and a small Ki value indicates a high binding affinity. […] The compounds are therefore expected to have utility in treatment of diseases during which anti-apoptotic Bcl-2 protein is expressed. Biological Data

RS4;11 cells = assay: RS4;11 cell viability assay (CellTiter Glo); format: cell-based; conditions: 10% human serum, 48 hours
Text: The acute lymphoblastic leukemia (ALL) cell line RS4;11 was used as the primary human cell line to assess the cellular activity of Bcl-2 selective agents in vitro and their efficacy in vivo. Previous studies have shown by BH3 profiling, a mitochondrial assay that classifies blocks in the intrinsic apoptotic pathway, that RS4;11 cells were highly dependant on BCL-2 for survival and sensitive to the Bcl-2 family member inhibitor ABT-737 (Blood, 2008, Vol. 111, 2300-2309).
RS4;11 cells were cultured in RPMI-1640 supplemented with 2 mM L-glutamine, 10% FBS, 1 mM sodium pyruvate, 2 mM HEPES, 1% penicillin/streptomycin (Invitrogen), 4.5 g/L glucose and maintained at 37 C containing 5% CO2. To test for the cellular activity of compounds in vitro, cells were treated at 50,000 cells per well in 96-well microtiter plates in the presence of 10% human serum for 48 hours in a humidified chamber with 5% CO2. Cell cytotoxicity EC50 values were assessed using CellTiter Glo (Promega) according to the manufacturer's recommendations. The EC50 values were determined as a percentage of viable cells following treatment compared to the untreated control cells.

[1] = 30 mg/kg intraperitoneal every day for four days, 24 hours after the last dose, read-out: Lymphocyte reduction % inh. day 4
[2] = 30 mg/kg intraperitoneal every day, 24 hours after the first dose, read-out: Lymphocyte reduction % inh. day 1

| SMILES | inhibition at 30 mg/kg (lymphocytes; [1]) [%] | inhibition at 30 mg/kg (lymphocytes; [2]) [%] | Ki (GST-Bcl-2) [µM] | EC50 (RS4;11 cells) [µM] |
| --- | --- | --- | --- | --- |
| CC1(C)CCC(CN2CCN(c3ccc(C(=O)NS(=O)(=O)c4ccc(NC[C@H]5COCCO5)c([N+](=O)[O-])c4)c(Oc4cnc5[nH]ccc5c4)c3)CC2)=C(c2ccc(Cl)cc2)C1 [Example 9, 4-(4-{[2-(4-chlorophenyl)-4,4-dimethylcyclohex-1-en-1-yl]methyl}piperazin-1-yl)-N-[(4-{[(2S)-1,4-dioxan-2-ylmethyl]amino}-3-nitrophenyl)sulfonyl]-2-(1H-pyrrolo[2,3-b]pyridin-5-yloxy)benzamide] | 58 | 69 | < 0.0001 | 0.0022 |
| CC1(C)CCC(CN2CCN(c3ccc(C(=O)NS(=O)(=O)c4ccc(NCC5CCSCC5)c([N+](=O)[O-])c4)c(Oc4cnc5[nH]ccc5c4)c3)CC2)=C(c2ccc(Cl)cc2)C1 [Example 22, 4-(4-{[2-(4-chlorophenyl)-4,4-dimethylcyclohex-1-en-1-yl]methyl}piperazin-1-yl)-N-({3-nitro-4-[(tetrahydro-2H-thiopyran-4-ylmethyl)amino]phenyl}sulfonyl)-2-(1H-pyrrolo[2,3-b]pyridin-5-yloxy)benzamide] | 44 | 40 | < 0.0001 | 0.028 |
| COC1(CNc2ccc(S(=O)(=O)NC(=O)c3ccc(N4CCN(CC5=C(c6ccc(Cl)cc6)CC(C)(C)CC5)CC4)cc3Oc3cnc4[nH]ccc4c3)cc2[N+](=O)[O-])CCOCC1 [Example 27, 4-(4-{[2-(4-chlorophenyl)-4,4-dimethylcyclohex-1-en-1-yl]methyl}piperazin-1-yl)-N-[(4-{[(4-methoxytetrahydro-2H-pyran-4-yl)methyl]amino}-3-nitrophenyl)sulfonyl]-2-(1H-pyrrolo[2,3-b]pyridin-5-yloxy)benzamide] | 21 | 23 | < 0.0001 | 0.097 |
| C[C@@H]1C[C@H](CNc2ccc(S(=O)(=O)NC(=O)c3ccc(N4CCN(CC5=C(c6ccc(Cl)cc6)CC(C)(C)CC5)CC4)cc3Oc3cnc4[nH]ccc4c3)cc2[N+](=O)[O-])C[C@H](C)O1 [Example 31, 4-(4-{[2-(4-chlorophenyl)-4,4-dimethylcyclohex-1-en-1-yl]methyl}piperazin-1-yl)-N-{[4-({[(2R,4R,6S)-2,6-dimethyltetrahydro-2H-pyran-4-yl]methyl}amino)-3-nitrophenyl]sulfonyl}-2-(1H-pyrrolo[2,3-b]pyridin-5-yloxy)benzamide] | 55 | 53 | < 0.0001 | 0.016 |
| CC1(C)CCC(CN2CCN(c3ccc(C(=O)NS(=O)(=O)c4ccc(NCC5(C#N)CCOCC5)c([N+](=O)[O-])c4)c(Oc4cnc5[nH]ccc5c4)c3)CC2)=C(c2ccc(Cl)cc2)C1 [Example 46, 4-(4-{[2-(4-chlorophenyl)-4,4-dimethylcyclohex-1-en-1-yl]methyl}piperazin-1-yl)-N-[(4-{[(4-cyanotetrahydro-2H-pyran-4-yl)methyl]amino}-3-nitrophenyl)sulfonyl]-2-(1H-pyrrolo[2,3-b]pyridin-5-yloxy)benzamide] | 35 | 46 | < 0.0001 | 0.0069 |
| CC(C)(O)CCNc1ccc(S(=O)(=O)NC(=O)c2ccc(N3CCN(CC4=C(c5ccc(Cl)cc5)CC(C)(C)CC4)CC3)cc2Oc2cnc3[nH]ccc3c2)cc1[N+](=O)[O-] [Example 12, 4-(4-{[2-(4-chlorophenyl)-4,4-dimethylcyclohex-1-en-1-yl]methyl}piperazin-1-yl)-N-({4-[(3-hydroxy-3-methylbutyl)amino]-3-nitrophenyl}sulfonyl)-2-(1H-pyrrolo[2,3-b]pyridin-5-yloxy)benzamide] | 27 | 41 | < 0.0001 | 0.03 |
| CC1(C)CCC(CN2CCN(c3ccc(C(=O)NS(=O)(=O)c4ccc(NCC5(O)COCCOC5)c([N+](=O)[O-])c4)c(Oc4cnc5[nH]ccc5c4)c3)CC2)=C(c2ccc(Cl)cc2)C1 [Example 25, 4-(4-{[2-(4-chlorophenyl)-4,4-dimethylcyclohex-1-en-1-yl]methyl}piperazin-1-yl)-N-[(4-{[(6-hydroxy-1,4-dioxepan-6-yl)methyl]amino}-3-nitrophenyl)sulfonyl]-2-(1H-pyrrolo[2,3-b]pyridin-5-yloxy)benzamide] | 15 | 29 | < 0.0001 | 0.036 |
| CC1(C)CCC(CN2CCN(c3ccc(C(=O)NS(=O)(=O)c4ccc(NCC5COC5)c([N+](=O)[O-])c4)c(Oc4cnc5[nH]ccc5c4)c3)CC2)=C(c2ccc(Cl)cc2)C1 [Example 23, 4-(4-{[2-(4-chlorophenyl)-4,4-dimethylcyclohex-1-en-1-yl]methyl}piperazin-1-yl)-N-({3-nitro-4-[(oxetan-3-ylmethyl)amino]phenyl}sulfonyl)-2-(1H-pyrrolo[2,3-b]pyridin-5-yloxy)benzamide] | 15 | 37 | < 0.0001 | 0.023 |
| C[C@@H](Nc1ccc(S(=O)(=O)NC(=O)c2ccc(N3CCN(CC4=C(c5ccc(Cl)cc5)CC(C)(C)CC4)CC3)cc2Oc2cnc3[nH]ccc3c2)cc1[N+](=O)[O-])C1CCOCC1 [Example 3, 4-(4-{[2-(4-chlorophenyl)-4,4-dimethylcyclohex-1-en-1-yl]methyl}piperazin-1-yl)-N-[(3-nitro-4-{[(1R)-1-(tetrahydro-2H-pyran-4-yl)ethyl]amino}phenyl)sulfonyl]-2-(1H-pyrrolo[2,3-b]pyridin-5-yloxy)benzamide] | < 15 | < 15 | < 0.0001 | 0.15 |
| CC1(C)CCC(CN2CCN(c3ccc(C(=O)NS(=O)(=O)c4ccc(NC[C@H]5CC[C@@]6(CCCO6)CC5)c([N+](=O)[O-])c4)c(Oc4cnc5[nH]ccc5c4)c3)CC2)=C(c2ccc(Cl)cc2)C1 [Example 5, 4-(4-{[2-(4-chlorophenyl)-4,4-dimethylcyclohex-1-en-1-yl]methyl}piperazin-1-yl)-N-[(3-nitro-4-{[(5R,8R)-1-oxaspiro[4.5]dec-8-ylmethyl]amino}phenyl)sulfonyl]-2-(1H-pyrrolo[2,3-b]pyridin-5-yloxy)benzamide] | 45 | 47 | < 0.0001 | 0.0052 |
| CC1(C)CCC(CN2CCN(c3ccc(C(=O)NS(=O)(=O)c4ccc(NCC5COCCOC5)c([N+](=O)[O-])c4)c(Oc4cnc5[nH]ccc5c4)c3)CC2)=C(c2ccc(Cl)cc2)C1 [Example 51, 4-(4-{[2-(4-chlorophenyl)-4,4-dimethylcyclohex-1-en-1-yl]methyl}piperazin-1-yl)-N-({4-[(1,4-dioxepan-6-ylmethyl)amino]-3-nitrophenyl}sulfonyl)-2-(1H-pyrrolo[2,3-b]pyridin-5-yloxy)benzamide] |  |  | < 0.0001 | 0.039 |
| CC(=O)N1CCC(CNc2ccc(S(=O)(=O)NC(=O)c3ccc(N4CCN(CC5=C(c6ccc(Cl)cc6)CC(C)(C)CC5)CC4)cc3Oc3cnc4[nH]ccc4c3)cc2[N+](=O)[O-])CC1 [Example 47, N-[(4-{[(1-acetylpiperidin-4-yl)methyl]amino}-3-nitrophenyl)sulfonyl]-4-(4-{[2-(4-chlorophenyl)-4,4-dimethylcyclohex-1-en-1-yl]methyl}piperazin-1-yl)-2-(1H-pyrrolo[2,3-b]pyridin-5-yloxy)benzamide] |  |  | < 0.0001 | 0.014 |
